The record followed here is paper PMC12575728, “Galactose-modified small molecule modulator targets RORα to enhance circadian rhythm and alleviate periodontitis-associated alveolar bone loss” (Bone Research, 2025).

One data set can be described thus: Kinetic solubility test. The data set is classed as physicochemical. The settings on record: water, 25 °C, kinetic from dmso stock. An excerpt:
Solubility(μmol/L)=Areafiltered×DFfiltered/Areastd×DFstd×[std]×DFstd

In another data set the target is T1, RORα (Homo sapiens, UniProt P35398).
T1 construct: HEK293T cells co-transfected with a full-length RORα gene and a luciferase reporter gene; expressed in transfected cells; host or cells: HEK293T
T1 sequence (P35398 1-523): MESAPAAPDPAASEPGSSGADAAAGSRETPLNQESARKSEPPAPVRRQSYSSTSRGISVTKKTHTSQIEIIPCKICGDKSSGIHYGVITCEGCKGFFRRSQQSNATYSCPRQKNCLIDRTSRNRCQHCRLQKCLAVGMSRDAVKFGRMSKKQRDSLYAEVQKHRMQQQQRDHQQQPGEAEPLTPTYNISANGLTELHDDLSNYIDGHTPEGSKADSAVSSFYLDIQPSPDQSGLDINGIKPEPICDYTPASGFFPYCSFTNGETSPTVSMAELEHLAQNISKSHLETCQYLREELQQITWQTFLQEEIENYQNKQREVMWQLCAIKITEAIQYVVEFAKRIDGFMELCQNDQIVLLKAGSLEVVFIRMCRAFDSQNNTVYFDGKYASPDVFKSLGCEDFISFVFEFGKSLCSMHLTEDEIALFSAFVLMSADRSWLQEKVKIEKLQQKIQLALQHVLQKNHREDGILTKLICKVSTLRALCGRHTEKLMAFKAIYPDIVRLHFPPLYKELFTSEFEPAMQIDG
The experiment in a line: Luciferase reporter assay (G6Pase or FGF21 promoter) in HEK293T cells cotransfected with RORα. In kind it is cell-based. The settings on record: Fig. S34. Here is the method: HEK293T cells were transfected with Lipofectamine 8000 (ThermoFisher) strictly following the manufacturer’s instructions. Cotransfected HEK293T cells with RORα or RORγ plasmid and a reporter consisting of the G6Pase or FGF21 promoters upstream of a luciferase reporter gene. 500 ng plasmid DNA was transfected into each well of 24 well-plate 24 h after the transfection, DMSO or Gala-SR and SR1078 (5 µmol/L) was added and incubated for 24 h. The Lumicycle instrument detects luminescence and records the numerical value.
In general terms: Reporter assays use an easily measured gene product as a stand-in for the process of interest.

The subject of data set [1] is Per2-dLuc and Bmal1-dLuc U2OS cells. The experiment in a line: Real-time bioluminescence monitoring of Per2-dLuc and Bmal1-dLuc U2OS cells. In kind it is cell-based, human. The settings on record: U2OS reporter cells, 5 μmol/L, vs DMSO. As for the experimental part:
Two clonal circadian reporter cell lines, Bmal1-dLuc and Per2-dLuc, were established and used in this study.[36] These two cell lines display robust cellular rhythmicity with near anti-phasic oscillation of bioluminescence expression. The lentivirus preparation, transduction of U2OS cells and selection of the knockout candidates with puromycin (at […] concentration) were performed using a previously published protoco.[37] LumiCycle (Actimetrics, Inc., Evanston, IL) detect for U2OS cells stably expressing Bmal1-dLuc and Per2-dLuc cells were seeded on an opaque 24-well plate. When the cells are full, which were treated with dexamethasone (DEX) (100 nmol/L final) for 2 h for resetting, 2 h later, the media of cells were replaced with bioluminescence recording media having DMEM culture medium (Gibco 21063029, 500 mL), 70 mL 12% FBS. Luciferin (0.1 mmol/L final) was added fresh to the bioluminescence media. Molecules at determined concentrations were supplied to the recording media (final DMSO concentration is 0.1%).

Structures are written as SMILES. In brackets after ≈: the same amount, converted by molar mass.

Take `O=C(Nc1ccc(C(OCO[C@@H]2O[C@H](CO)[C@@H](O[C@H]3O[C@H](CO)[C@@H](O)[C@H](O)[C@H]3O)[C@H](O)[C@H]2O)(C(F)(F)F)C(F)(F)F)cc1)c1ccc(C(F)(F)F)cc1` [Malt-SR]: the kinetic solubility at 2 h in “Kinetic solubility test” stood at 286 µM (≈ 225 µg/mL).

In the case of `O=C(Nc1ccc(C(OCO[C@H]2O[C@H](CO)[C@@H](O)[C@H](O)[C@@H]2O)(C(F)(F)F)C(F)(F)F)cc1)c1ccc(C(F)(F)F)cc1` [Mann-SR], in “Kinetic solubility test”, the solubility (kinetic) at 2 h came out at 198 µM (≈ 124 µg/mL).

As for `Cc1ccc(C(=O)Nc2ccc(C(O)(C(F)(F)F)C(F)(F)F)cc2)cc1` [compound 9, reference compound], at RORα, the RORα transcriptional activity result is given as “successful inhibition”. In data set [1], the circadian rhythm amplitudes entry is given as “downregulate the amplitudes” and the “period or phase of the circadian rhythm” value is reported as “without disrupting the fundamental period or phase”.

In general, solubility (kinetic) refers to solubility judged after dilution from a stock solution rather than from solid.
